# Earlier results, collected in publication PMC12299890 (Pharmaceuticals, 2025).
# Like-named read-outs stand apart in the source and are kept apart here.
# Set-up: method as in PMID 27121673
# Settings: cited from earlier work
smiles,measurement,setting,value
"O[C@H]1[C@H](O)[C@@H](O)[C@H](O)[C@@H](O)[C@@H]1O [SCI, scyllo-inositol]",Time of maximum plasma concentration,"after the last dose, 2000 mg two times a day for 10 days",2.9 h
same,AUC of SCI in CSF,"day 1, oral 2000 mg two times a day",49.4 µg·h/mL
same,AUC of SCI in CSF,"day 11, oral 2000 mg two times a day",153.0 µg·h/mL
same,Increase of brain concentration of SCI during the study,oral 2000 mg two times a day for 10 days,58–76%
same,Side effects reported,oral 2000 mg two times a day,No side effects
same,Time of peak SCI plasma concentration,"plasma, after first oral dose of 2000 mg twice a day",3.8 h
